Assay results published in patent US11253497B2, “Use of derivatives of polyunsaturated fatty acids as medicaments” (Lipopharma Therapeutics, S.L., priority 2009, dated 2022).
pIC50: −log10 of the molar value.

Legend:
[1] = system: brain cancer cell (glioma) U118; assay: Brain cancer (glioma) U118 cell growth; assay type: cell-based; conditions: 72 hours of incubation
How it was run: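 Cell counts taken with compound, mean of three independent experiments. Applies to U118.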

Jurkat cells = assay: Human leukaemia (Jurkat cells); assay type: cell-based; conditions: 72 hours
Experimental: Overall, it may be seen that the series of compounds A and B are the best, so the effectiveness of these series against the development of leukaemia and liver cancer (Tables 9 and 10) was tested.

Alzh mice = assay: Radial maze in animal model of Alzheimer's disease (Alzh mice); assay type: in vivo; conditions: animals with Alzheimer's disease, 20 mg/kg daily po, 3 months
Source text: On the vertical axis it is represented the neuronal death (% of control) depending on the fatty acid used (x-axis). The presence of PUFAs induced modest increases in the survival of P19 cells in the presence of NMDA. D-PUFAs induced significant increases in cell survival values, exceeding in more than 200% in the case of 226A1. Since the number of cells in cultures treated cells is higher than in control cells, it may be affirmed that these compounds not only prevent neuronal death induced by NMDA (anti-neurodegenerative) but also are neuroregenerative agents. […] In the Y axis of the left figure it is shown the time taken to complete the exercise and in the vertical Y axis of the right figure the total number of errors made in the implementation of programmed exercise (mean standard error of the mean) (runtime). In both figures, from left to right, it is represented in the X axis the results in healthy mice (control) (first column), in mice with induced Alzheimer and treated with water as vehicle (second column) or in mice treated with the compound 226B1 (third column). Animals with Alzheimer's disease took longer and made more errors than healthy mice, being the differences statistically significant (*, P<0.05).
To test the efficacy of the compounds of the present invention to induce neuroregeneration or inhibit neurodegeneration, an animal model of Alzheimer's disease was used. In this model mice develop neurodegeneration because they express a series of mutant proteins that lead to brain damage (Alzh mice). B6 mice were used as healthy animal controls. Both groups of animals were treated for a period of 3 months with vehicle (water) or with various D-PUFA (20 mg/kg, daily po) since they were an age of 3 months. To determine whether cognitive improvement occurred after treatment, animal behaviour was monitored in the radial maze. The animals are kept on restricted diet to have appetite. In a symmetrical 8-arm radial maze, visual marks were placed to facilitate the orientation of the animal and food (15 mg tablet) was put in four of the arms. The time each animal took to complete the exercise, and the number of errors, were measured using a camera attached to a computer system. In this sense, Alzheimer animals have values about 50% higher than healthy animals, both by the time it takes to perform the exercise and by the number of errors made (FIG. 4B). […] In this regard, the effectiveness of the compound 183B1, 205A1, 205B1, 226A1, 226 V1 was also tested, showing improvements in animals with Alzheimer's disease (times of 98, 92, 93, 86 and 89 seconds, respectively). […]

P19 cells = assay: NMDA-induced neuronal death in P19 cells; assay type: cell-based; conditions: for Neuronal death (P19 cells) after treatment with NMDA: NMDA alone 100% death, control without NMDA 0%, negative values = proliferation
lung cancer cells A549 = assay: Growth of lung cancer cells A549 (IC50); assay type: cell-based, human; conditions: 72 hours of incubation
How it was run: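 Cell counts taken with compound, mean of three independent experiments. Applies to A549 (RPMI 1640, 10% FBS, 37 °C, 5% CO2).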

[2] = system: apolipoprotein AI (apoA-I); assay: Levels of apoA-I in SHR rats (RT-PCR); assay type: in vivo, rat; conditions: 200 mg/kg day p.o., 30 days, before treatment 100%
How it was run: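 SHR rats dosed orally at 200 mg/kg day for 30 days against water vehicle. At study end, blood pressure taken non-invasively by tail cuff and apoA-I assessed as gene expression by RT-PCR.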

[3] = Serum cholesterol, triglycerides and glucose in SHR rats (colorimetric); assay type: in vivo, rat; conditions: 200 mg/kg daily p.o., 28 days, untreated rats 100%
How it was run: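 SHR rats dosed p.o. at 200 mg/kg daily for 28 days; serum cholesterol, triglycerides and glucose measured colorimetrically. Values given as percent of untreated control rats, set at 100%.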

CCC=CCC=CCC=CCCCCCCC(O)C(=O)[O-].[Na+] (stereo not shown) [183B1]
pIC50 [1]: 3.69
pIC50 (Jurkat cells): 3.71
Time to complete the radial maze exercise (Alzh mice): 98 s
Neuronal death (P19 cells) after treatment with NMDA (P19 cells): −58%
pIC50 (lung cancer cells A549): 3.71
Levels of apoA-I [2]: 151%
Cholesterol in serum (top number) [3]: 75%
Glucose in serum (bottom number) [3]: 84%
Triglycerides in serum (central number) [3]: 66%

CCC=CCC=CCC=CCC=CCC=CCCC(O)C(=O)O (stereo not shown) [205A1, 2-hydroxy-5,8,11,14,17-eicosapentaenoic acid]
pIC50 [1]: 3.40
pIC50 (Jurkat cells; Homo sapiens, Jurkat): 3.42
Time to complete the radial maze exercise (Alzh mice): 92 s
Neuronal death (P19 cells) after treatment with NMDA (P19 cells): −50%
pIC50 (lung cancer cells A549; Homo sapiens, A549): 3.40
Levels of apoA-I [2]: 346%
Cholesterol in serum (top number) [3]: 69%
Glucose in serum (bottom number) [3]: 82%
Triglycerides in serum (central number) [3]: 74%

CCC=CCC=CCC=CCC=CCC=CCCC(O)C(=O)[O-].[Na+] (stereo not shown) [205B1]
pIC50 [1]: 3.41
pIC50 (Jurkat cells): 3.53
Time to complete the radial maze exercise (Alzh mice): 93 s
Neuronal death (P19 cells) after treatment with NMDA (P19 cells): −52%
pIC50 (lung cancer cells A549): 3.69
Levels of apoA-I [2]: 264%
Cholesterol in serum (top number) [3]: 58%
Glucose in serum (bottom number) [3]: 87%
Triglycerides in serum (central number) [3]: 65%

CCC=CCC=CCC=CCC=CCC=CCC=CCC(O)C(=O)O (stereo not shown) [226A1]
pIC50 [1]: 3.67
pIC50 (Jurkat cells): 4.07
Time to complete the radial maze exercise (Alzh mice): 86 s
Neuronal death (P19 cells) after treatment with NMDA (P19 cells): −230%
Increase in cell survival in the presence of NMDA (FIG. 4A) (P19 cells; P19 cells): more than 200%
pIC50 (lung cancer cells A549): 3.71
Levels of apoA-I [2]: 324%
Cholesterol in serum (top number) [3]: 64%
Glucose in serum (bottom number) [3]: 79%
Triglycerides in serum (central number) [3]: 71%
